Four molecules from US11766434B2, “Pyrimidinone derivatives as CDC7 inhibitors” (Cancer Research Technology Limited, priority 2016, dated 2023) can be followed below.

For one experiment, the target named is Cdc7 (Homo sapiens, UniProt O00311). Put plainly: Cdc7 cell pharmacodynamics assay Method 2: pS40MCM2 levels in HCT116 cells. Further details: endogenous in cells. To be noted: 18 hours treatment, read-out: Biomarker Method 2 (pEC50) (converted). Format: cell-based. The text has this: This protocol describes a method to investigate the inhibition of Cdc7 activity by measuring pS40MCM2 levels in cells, after treatment with compounds.
Sequence of Cdc7 (O00311 whole entry): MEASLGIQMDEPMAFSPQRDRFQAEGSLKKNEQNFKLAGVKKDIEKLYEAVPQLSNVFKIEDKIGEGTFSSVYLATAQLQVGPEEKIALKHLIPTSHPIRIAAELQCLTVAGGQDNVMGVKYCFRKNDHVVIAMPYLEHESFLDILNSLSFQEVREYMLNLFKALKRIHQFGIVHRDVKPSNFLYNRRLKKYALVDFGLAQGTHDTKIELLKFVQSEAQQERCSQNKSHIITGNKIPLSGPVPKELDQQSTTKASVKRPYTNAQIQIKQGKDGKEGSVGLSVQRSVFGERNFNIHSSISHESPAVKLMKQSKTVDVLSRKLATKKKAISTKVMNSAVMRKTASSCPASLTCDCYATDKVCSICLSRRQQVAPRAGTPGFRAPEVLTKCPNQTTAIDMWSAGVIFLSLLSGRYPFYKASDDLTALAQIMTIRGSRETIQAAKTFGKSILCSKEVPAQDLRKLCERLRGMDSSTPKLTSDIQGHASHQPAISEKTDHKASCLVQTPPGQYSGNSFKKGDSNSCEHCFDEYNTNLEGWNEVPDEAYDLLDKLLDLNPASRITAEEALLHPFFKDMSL
Sequence of Cdc7 (Q9UBU7 whole entry partner): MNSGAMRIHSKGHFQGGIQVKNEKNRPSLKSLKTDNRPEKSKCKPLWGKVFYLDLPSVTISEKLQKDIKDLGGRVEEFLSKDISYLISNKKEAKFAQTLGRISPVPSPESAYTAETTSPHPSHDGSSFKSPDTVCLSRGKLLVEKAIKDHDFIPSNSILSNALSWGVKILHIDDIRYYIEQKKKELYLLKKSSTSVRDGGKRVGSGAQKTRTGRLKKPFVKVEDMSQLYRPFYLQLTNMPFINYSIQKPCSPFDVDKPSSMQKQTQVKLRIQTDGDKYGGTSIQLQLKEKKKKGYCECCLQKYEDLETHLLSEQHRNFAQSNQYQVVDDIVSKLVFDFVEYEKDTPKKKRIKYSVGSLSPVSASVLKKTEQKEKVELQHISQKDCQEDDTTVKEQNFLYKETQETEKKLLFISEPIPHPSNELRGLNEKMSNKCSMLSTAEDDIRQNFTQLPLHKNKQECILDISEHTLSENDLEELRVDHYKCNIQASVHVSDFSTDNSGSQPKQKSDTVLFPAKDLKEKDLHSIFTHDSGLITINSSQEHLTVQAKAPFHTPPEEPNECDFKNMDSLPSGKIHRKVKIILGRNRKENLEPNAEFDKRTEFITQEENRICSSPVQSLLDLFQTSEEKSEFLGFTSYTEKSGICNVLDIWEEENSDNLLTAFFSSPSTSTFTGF
• HCT116 cells (ATCC, #CCL-247) • McCoys 5A with L-glutamine (Cellgro, #10-050-CV) • 10% FCS (Cellgro, #35-010-CV) • D-PBS without CaCl2 and MgCl2 (Cellgro, #21-031-CV) • Trypsin/EDTA (Cellgro, #25-052-CL) • BSA (Calbiochem, 126593) • Cell Extraction Buffer (Invitrogen FNN0011) • Protease inhibitor cocktail (Sigma P-2714) • PMSF 0.3M stock in DMSO (Sigma P7626) • Antibody—rabbit pMCM2 Ser40 (Abeam, AB133243) • Antibody—goat MCM2 (Bethyl #A300-122A) • Antibody—goat Anti Rabbit IgG HRP (Thermo, 31462) • SuperSignal ELISA Pico Chemiluminescent Substrate (Perbio Science UK Ltd 37069) • 10×PBS (Growcells, MRGF-6236) • Triton X100 (Sigma, P-T8787) • DMSO (Fisher, D128-1) • 2-Propanol (J. T. Baker, 9095-03) Method • Seed 1×10^6 HCT116 cells into each of two 175 cm^2 flask containing 30 mL Cell Growth Media and incubate at 37° C., 5% CO2 for 3 days. • Harvest the cells from one T175 cm^2 flask and count. • Dilute with Cell Growth Media to a cell density of 2×10^5. Dispense 100 μL to each well (20,000 HCT116 cells/well) of TC treated 96-well plate(s). • Allow cells to settle overnight in incubator set at 37° C. and 5% CO2. • Cell treatment: Transfer 0.25 μL/well from the compound plate to the wells of the cell plate(s). This is a 1:400 dilution of compound in the assay. • Once all cells are treated place the cells back to the incubator and incubate for 18 hours. • Dilute the capture antibody (total MCM2 #A300-122A) 1 in 250 in the required volume of PBS (5 mL per assay plate, plus 5 mL for dead volume) and add 50 μL to each well of a Hybond plate except wells A12 & B12. Seal the plate and incubate at room temperature fora minimum of 2 hours. • Defrost aliquot of Invitrogen Cell Extraction Buffer (FNN0011) on ice and supplement with appropriate volume of both Sigma protease inhibitor cocktail (P-2714) and PMSF (final cone 1 mM from a 1 M stock in DMSO). • After the 6 hour or 18 hour cell treatment time, tap out the media from the assay plates and place them in the −70° C. freezer for at least 5 minutes. • Flick out the remaining liquid in the previously prepared capture Ab plate(s) and add 200 μL 2% BSA per well. Incubate for 1 hour at room temperature. • Remove plates from freezer and add 20 μL of ice cold complete lysis buffer. Incubate cells for 30 minutes at 4° C. • Add 30 μL per well 2% BSA • At the end of the 1 hour incubation, wash the Capture/ELISA plate(s) with Wash Buffer on the BioTek plate washer. • Transfer 40 μL per well of the lysis plate(s) to the same wells in the Capture/ELISA plate. Incubate cells overnight at 4° C. • At the end of the overnight incubation, wash the ELISA plate(s) with Wash Buffer on BioTek plate washer. • Prepare Detection Antibody Buffer and dispense 50 μL to all wells of ELISA plate(s) except wells G1 & H1. Cover plate and incubate at room temperature for 2 hours with gentle shaking. • At the end of the 2 hour incubation, wash the ELISA plate(s) with Wash Buffer on the BioTek plate washer. • Prepare the Conjugated Antibody Buffer and dispense 50 μL to all wells of ELISA plate(s). • Cover the plate and incubate at room temperature for 1 hour with gentle shaking. • At the end of the 1 hour incubation, wash the ELISA plate(s) with Wash Buffer on the BioTek plate washer. • Prepare Substrate Buffer and dispense 50 μL to all wells of ELISA plate(s). • Incubate for a minimum of 10 minutes and read plates on the EnVision 2100 Multilabel Reader (Mirror: Luminescence (404) & Luminescence 700 (212); Measurement Height: 6.5 mm; Measurement Time: 0.2 s). Method 3

The target in another experiment is Cdc7/ASK (Homo sapiens, UniProt O00311). Put plainly: Cdc7 biochemical assay Method 3: off-chip mobility shift assay (MSA) run at Carna Biosciences. Further details: purchased Carna Biosciences; host or cells: baculovirus expression system. The following applies: MCM2 peptide 1000 nM, ATP 5 μM, 5 hours, read-out: Biochemical method 3 (pIC50) (converted). How it is done:
This protocol describes a method for assaying Cdc7/ASK for activity. The assay is an off-chip mobility shift assay (MSA) run at Carna Biosciences.
The test compound was dissolved in and diluted with dimethylsulfoxide (DMSO) to achieve 100-fold higher concentration which was specified by the sponsor. Then the solution was further 25-fold diluted with assay buffer to make the final test compound solution. Reference compounds for assay control were prepared similarly. 2. Kinase Cdc7/ASK: Full-length human Cdc7 [1-574(end) amino acids of accession number NP_003494.1] was co-expressed as N-terminal GST-fusion protein (92 kDa) with Dbf4(ASK) [1-674(end) amino acids of accession number NP_006707.1] using baculovirus expression system. GST-Cdc7 was purified by using glutathione sepharose chromatography. 3. Assay Reagents and Procedures Off-Chip Mobility Shift Assay (MSA) • 1) The […] were prepared with assay buffer (20 mM HEPES, 0.01% Triton X-100, 1 mM DTT, pH 7.5) and mixed and incubated in a well of polypropylene 384 well microplate for 5 hours at room temperature. • 2) […] of Termination Buffer (QuickScout Screening Assist MSA; Carna Biosciences) was added to the well. • 3) The reaction mixture was applied to LabChip system (Perkin Elmer), and the product and substrate peptide peaks were separated and quantitated. • 4) The kinase reaction was evaluated by the product ratio calculated from peak heights of product (P) and substrate (S) peptides (P/(P+S)). 4. Reaction Conditions
5. Data Analysis The readout value of reaction control (complete reaction mixture) was set as a 0% inhibition, and the readout value of background (Enzyme(−)) was set as a 100% inhibition, then the percent inhibition of each test solution was calculated. IC50 value was calculated from concentration vs. % Inhibition curves by fitting to a four parameter logistic curve. Results

Sequence of Cdc7/ASK (O00311 whole entry): as the sequence (O00311 whole entry) above
Sequence of Cdc7/ASK (Q9UBU7 whole entry partner): as the sequence (Q9UBU7 whole entry partner) above

Regarding `O=c1[nH]c(-c2cn[nH]c2C(F)(F)F)nc(C2CCOCC2)c1Cl` [Compound 17, 5-chloro-4-tetrahydropyran-4-yl-2-[5-(trifluoromethyl)-1H-pyrazol-4-yl]-1H-pyrimidin-6-one], the EC50 at Cdc7 was 372 nM.

In the case of `C[C@@H]1COCCN1c1nc(-c2cn[nH]c2C(F)(F)F)[nH]c(=O)c1Cl` [Compound 41, 5-chloro-4-[(3R)-3-methylmorpholin-4-yl]-2-[5-(trifluoromethyl)-1H-pyrazol-4-yl]-1H-pyrimidin-6-one], the EC50 at Cdc7 is 7.24 nM. Moreover, the IC50 on Cdc7/ASK is 3.98 nM.

With `C[C@@H]1CNCCN1c1nc(-c2cn[nH]c2Cl)[nH]c(=O)c1Cl` [Compound 43, 5-chloro-2-(5-chloro-1H-pyrazol-4-yl)-4-[(2R)-2-methylpiperazin-1-yl]-1H-pyrimidin-6-one], at Cdc7, the EC50 was 38 nM. Further, on Cdc7/ASK, the IC50 was 3.89 nM.

In the case of `C[C@@H]1CNCCN1c1nc(-c2cn[nH]c2C(F)(F)F)[nH]c(=O)c1Cl` [Compound 44, 5-chloro-4-[(2R)-2-methylpiperazin-1-yl]-2-[5-(trifluoromethyl)-1H-pyrazol-4-yl]-1H-pyrimidin-6-one], the EC50 on Cdc7 is 25.1 nM. For the same molecule, at Cdc7/ASK, the IC50 was 6.17 nM.
